Residue numbers refer to the chain shown, from its start.

Consider two compounds from patent publication US12577231B2, “Androgen receptor PROTACS” (GlaxoSmithKline Intellectual Property Development Limited, priority 2023, dated 2026).

Series [1] is described as follows: Systemic exposure following oral administration in the rat. To be noted: for AUC0-t: 72 hours sampling; for AUC0-t / Cmax / Dose Normalised AUC0-t / Tmax: mean±SD (n=3); for *Estimated Bioavailability: dose normalised AUC0-t against an IV dose of 0.5 mg/kg.
Description: Systemic exposure of various forms of N-((1r,3r)-3-(4-cyano-3-methoxyphenoxy)-2,2,4,4-tetramethylcyclobutyl)-4-(4-((4-(4-(2,4-dioxotetrahydropyrimidin-1(2H)-yl)-1H-pyrazolo[4,3-c]pyridin-1-yl)piperidin-1-yl)methyl)piperidin-1-yl)-3-fluorobenzamide were assessed following oral administration of 30 mg/kg of a suspension formulation (1% methylcellulose (aq)) or following oral administration of 35 mg/kg of a suspension formulation (100% PEG400) in the male Wistar Han rat. […] The sampling period was 72 hours, and the data is reported in the attached table as mean±SD (n=3).
Series [2] has as its target T1, Androgen Receptor, LNCaP (AR T878A) (Homo sapiens, UniProt P10275, T878A).
T1 construct: endogenous in cells; host or cells: LNCaP
T1 sequence (P10275 1-920 T878A): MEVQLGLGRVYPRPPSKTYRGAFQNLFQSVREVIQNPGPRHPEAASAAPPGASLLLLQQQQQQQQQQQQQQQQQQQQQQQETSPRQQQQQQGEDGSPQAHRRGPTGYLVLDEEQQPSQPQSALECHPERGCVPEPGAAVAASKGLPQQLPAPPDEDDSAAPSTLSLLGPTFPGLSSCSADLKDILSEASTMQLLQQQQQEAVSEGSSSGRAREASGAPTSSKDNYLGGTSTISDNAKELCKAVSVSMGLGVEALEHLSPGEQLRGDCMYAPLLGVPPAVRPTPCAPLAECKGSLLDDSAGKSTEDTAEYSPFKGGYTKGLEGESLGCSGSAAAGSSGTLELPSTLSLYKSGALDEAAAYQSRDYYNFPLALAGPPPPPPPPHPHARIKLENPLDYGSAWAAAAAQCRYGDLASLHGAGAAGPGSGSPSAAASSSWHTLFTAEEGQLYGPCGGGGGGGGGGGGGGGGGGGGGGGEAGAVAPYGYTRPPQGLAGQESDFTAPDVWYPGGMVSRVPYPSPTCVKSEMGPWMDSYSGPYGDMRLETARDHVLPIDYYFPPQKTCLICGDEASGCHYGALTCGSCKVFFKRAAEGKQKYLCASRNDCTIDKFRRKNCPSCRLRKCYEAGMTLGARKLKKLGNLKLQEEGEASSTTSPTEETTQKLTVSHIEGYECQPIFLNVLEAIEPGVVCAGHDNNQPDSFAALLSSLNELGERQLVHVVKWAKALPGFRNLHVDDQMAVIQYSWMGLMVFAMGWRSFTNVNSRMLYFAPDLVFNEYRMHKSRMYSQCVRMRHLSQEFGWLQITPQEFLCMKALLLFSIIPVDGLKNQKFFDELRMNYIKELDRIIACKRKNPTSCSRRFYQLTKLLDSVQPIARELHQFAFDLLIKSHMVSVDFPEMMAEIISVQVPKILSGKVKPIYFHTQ
Description: Androgen Receptor Degradation-Imaging Assay, LNCaP cell line. Format: cell-based. To be noted: 16 hours treatment, maximum observed degradation. As to the method: (§1) Degradation of Androgen Receptor (AR) protein in human prostate cancer cell lines (MDA-PCa-2b (AR T878A/L702H), LNCaP (AR T878A), VCaP (AR wild type and amplified) 22RV1 (AR H875Y) and PC3 (AR negative control)) treated with AR PROTACs was quantified using immunofluorescence. Prostate cancer cells were plated (MDA-PCa-2b, and VCaP 16,000 cells/well; LNCaP and 22RV1 32,000 cells/well, and PC3 8,000 cells/well) in an optical bottom 96-well cell culture plate and allowed to attach overnight. The prostate cancer cell lines were treated for 16 hours with a 10-point 3-fold dilution series (dose range=0.02 nM to 333 nM). PC3 is included as an AR negative control and not treated with compound. Cells are fixed and permeabilized with 4% formaldehyde, blocked with 10% goat serum in immunofluorescence (IF) buffer (130 mM NaCl, 7 mM Na2HPO4, 3.5 mM NaH2PO4, 7.7 mM NaN3, 0.1% BSA, 0.2% Triton X, 0.05% Tween 20) prior to overnight incubation with rabbit antibody specific for C terminus of AR (commercially available from RevMaB Biosciences). Following washes with IF buffer, cells were incubated with fluorescent secondary antibody (Goat anti-rabbit Alexa 647; commercially available from Invitrogen) and Hoechst nuclear stain (commercially available from Themo Scientific) prior to quantification of nuclear AR levels via Opera Phenix high-content fluorescent imager using a 40× water objective. Image analysis was performed with Harmony software.
(§2) The averaged nuclear Alexa 647 median fluorescence intensity (MFI) of PC3 cells is subtracted from the nuclear Alexa 647 MFI of PROTAC treated and DMSO control treated cells. % AR remaining is calculated for PROTAC treatments as a percent of the DMSO control (MFI PROTAC treated/MFI DMSO control treated)*100). DC50 and the Dmax values, were obtained from these normalised values fitted with a 4-parameter sigmoidal response curve (Xlfit software). The DC50 is the interpolated concentration of PROTAC corresponding to 50% of the protein being degraded, and the Dmax parameter is the maximum experimentally observed degradation.

In series [3] the target is T2, Androgen Receptor, MDA-PCa-2b (AR T878A/L702H) (Homo sapiens, UniProt P10275, L702H/T878A).
T2 construct: host or cells: MDA-PCa-2b
T2 sequence (P10275 1-920 L702H/T878A): T1 sequence (P10275 1-920 T878A) with L702H
The series can be described thus: Androgen Receptor Degradation-Imaging Assay, MDA-PCa-2b cell line. Format: cell-based. To be noted: 16 hours treatment, maximum observed degradation. As to the method: as §1, §2

In series [4] the target is T3, Androgen Receptor, VCaP (AR wild type and amplified) (Homo sapiens, UniProt P10275).
T3 construct: endogenous in cells; host or cells: VCaP
T3 sequence (P10275 1-920): T1 sequence (P10275 1-920 T878A) with A878T
Description: Androgen Receptor Degradation-Imaging Assay, VCaP cell line. Format: cell-based. To be noted: 16 hours treatment, maximum observed degradation. As to the method: as §1, §2

[5] abbreviates: 30 mg/kg in 1% methylcellulose (aq.), male Wistar Han rat, 30 mg/kg.
[6] abbreviates: 35 mg/kg in 100% PEG400, male Wistar Han rat, 35 mg/kg.

Usually Cmax stands for the highest concentration seen after dosing. As usually defined, the Tmax is the time at which the peak concentration occurs. For `COc1cc(O[C@H]2C(C)(C)[C@H](NC(=O)c3ccc(N4CCC(CN5CCC(n6ncc7c(N8CCC(=O)NC8=O)nccc76)CC5)CC4)c(F)c3)C2(C)C)ccc1C#N` [Crystalline API, N-((1r,3r)-3-(4-cyano-3-methoxyphenoxy)-2,2,4,4-tetramethylcyclobutyl)-4-(4-((4-(4-(2,4-dioxotetrahydropyrimidin-1(2H)-yl)-1H-pyrazolo[4,3-c]pyridin-1-yl)piperidin-1-yl)methyl)piperidin-1-yl)-3-fluorobenzamide], in series [1] (setting [5]), the AUC0-t amounted to 4380 ± 1450 ng·h/mL, the Cmax turned out to be 185 ± 76 ng/mL, the “Dose Normalised AUC0-t” value is 148 ± 49 (ng · h/mL)/(mg/kg and the Tmax was determined as 7.3 ± 1.2 h. Further, in series [1] (30 mg/kg in 1% methylcellulose (aq.), rat), the “*Estimated Bioavailability” value is 16%. In series [1] (setting [6]), the AUC0-t came out at 10700 ± 3370 ng·h/mL, the Cmax was 420 ± 123 ng/mL, the “Dose Normalised AUC0-t” value is 309 ± 98 (ng · h/mL)/(mg/kg and the Tmax is on record as 9.3 ± 2.3 h. For the same compound, the “*Estimated Bioavailability” value in series [1] (35 mg/kg in 100% PEG400, rat) is 33%.

By Dmax is commonly meant the greatest extent of degradation seen. Low readings indicate shallow degradation, high ones deep degradation. As to `COc1cc(O[C@H]2C(C)(C)[C@H](NC(=O)c3ccc(N4CCC(CN5CCC(n6ccc7c(N8CCC(=O)NC8=O)nccc76)CC5)CC4)c(F)c3)C2(C)C)ccc1C#N` [Example 17, N-((1r,3r)-3-(4-Cyano-3-methoxyphenoxy)-2,2,4,4-tetramethylcyclobutyl)-4-(4-((4-(4-(2,4-dioxotetrahydropyrimidin-1(2H)-yl)-1H-pyrrolo[3,2-c]pyridin-1-yl)piperidin-1-yl)methyl)piperidin-1-yl)-3-fluorobenzamide], the maximal degradation (Dmax) in series [2], in series [3] and in series [4] was at least 80% throughout.
